The subject of experiment [1] is COLO 205 cells. The experiment in a line: MTS cytotoxicity test with COLO 205 cells. Particulars: Homo sapiens, COLO 205, 72 h, 3 days. It is filed as cell-based, human. How it is done:
The assay, which is sold in kit form by Promega (Madison, Wis.; CellTiter 96 AQueous Non-Radioactive Cell Proliferation Assay), is based on the conversion by viable cells, but not by dead cells, of the tetrazolium salt, MTS (3-(4,5-dimethylthiazol-2-yl)-5-(3-carboxymethoxyphenyl)-2-(4-sulphophenyl)-2H-tetrazolium, inner salt), into a water-soluble colored formazan which is detected by spectrophotometry. Compounds are tested at nine concentrations, in order to determine IC50 values. For the test procedure, cells are harvested by trypsinization (or, in the case of non-adherent cells, by simple resuspension), washed, counted and distributed to wells of 96-well flat-bottom microtiter plates at 1000 cells per well in 200 μL of medium. In addition, one row of wells on a separate plate received cells as above (“time 0” plate). All plates are incubated at 37° in humidified 5% CO2 in air for about 24 hr.
On day 2, compounds for test are diluted and added to wells. Compounds are dissolved in DMSO at 10 mg/mL. For each compound, nine serial 2-fold dilutions are prepared in DMSO. Ten μL of each dilution in DMSO is transferred to 100 μL of medium, mixed well, and then 5 μL of this dilution is transferred in quadruplicate to wells containing cells. The final high concentration of each compound is typically 5 μM. Plates are returned to the incubator for three days. At the time of drug addition to the experimental plates, the MTS assay is run on the “time 0” plate. This produced the “time 0 MTS value” which is related to the number of viable cells per well at the time of drug addition.
After three days of culture with test compounds (day 5 overall), the MTS assay is done on all wells of the experimental plates. The absorbance values of the quadruplicate sample wells are averaged and divided by the average of the “time 0” values. The average of control wells without drug, divided by the average “time 0” value, gave the maximal relative increase in MTS color yield due to cell growth during the final three days of culture. The average of control wells with high drug concentration, divided by the “time 0” value, gave the minimal relative color yield for cells that are completely killed. The nine values for each compound are plotted against concentration, and the concentration that produced a relative color yield half way between the maximum and minimum is taken as the IC50 value.
COLO 205 is a human colon carcinoma cell line that is used for comparative testing of the examples of this invention and several reference compounds. This line is sensitive to paclitaxel and vincristine.
Background: Formazan colour is commonly taken as a measure of viable cells.

In experiment [2] the test system is MAP-rich tubulin. The experiment in a line: Tubulin polymerization test with MAP-rich tubulin. To be noted: 0.3 μM compound, 20 min, fold enhancement over control. It counts as biochemical, bovine. The protocol: Medium is RPMI-1640 with L-glutamine, supplemented with 10% heat-inactivated fetal calf serum, 100 units/ml penicillin, and 100 μg/ml streptomycin (Gibco, Grand Island, N.Y.). Microtubule-associated protein (MAP)-rich tubulin, containing about 70% tubulin and 30% MAPs (#ML113), and highly purified tubulin (>99% pure, #TL238), both from bovine brain, are obtained from Cytoskeleton, Inc., Denver, Colo. PEM buffer (80 mM piperazine-N,N′-bis[2-ethanesulfonic acid], pH 6.9, 1 mM ethylene glycol-bis(β-aminoethyl ether)-N,N,N′,N′-tetraacetic acid, 1 mM magnesium chloride) and guanosine 5′-triphosphate (GTP) are also obtained from Cytoskeleton. [3H]paclitaxel, specific activity 14.7 Ci/mmol, is purchased from Moravek Biochemicals (Brea, Calif.). [^3H]vinblastine, specific activity 9.60 Ci/mmol and MicroSpin G-50 columns are obtained from Amersham Biosciences (Piscataway, N.J.). […] Other reagents are obtained from Sigma (St. Louis, Mo.).
Two variations of this procedure are done, one using MAP-rich tubulin and one using pure tubulin.
MAP-rich tubulin is dissolved in ice-cold PEM buffer containing 1 mM GTP (GPEM buffer) at a concentration of 1.3 mg/mL. The solution is centrifuged at top speed in an Eppendorf model 5415C microcentrifuge (Brinkmann Instruments, Westbury, N.Y.) for 10 min at […] immediately before use. The tubulin solution is added to wells of a ½-area 96-well plate (Costar No. 3696, Corning, Inc., Corning, N.Y.) already containing the compounds of interest. Each compound is tested in duplicate at a final concentration of 0.3 μM in a volume of 110 μL per well. The final DMSO concentration in all wells is 0.3%. Control reactions, which received compound solvent only, are done in quadruplicate. The plate is put in a SpectraMax Plus plate reader (Molecular Devices Corp. Sunnyvale, Calif.) thermostated at 24° and the absorbance of each well at 340 nm, a measure of the appearance of turbidity due to tubulin polymer formation, is determined every minute for 60 minutes. The absorbance at time 0 for each well is subtracted from each of the subsequent absorbance readings for that well, and then the duplicates are averaged.
In this assay, control reactions with MAP-rich tubulin show an S-shaped absorbance profile characterized by three phases: first, a lag phase during which no change in absorbance occurs; second, a polymerization phase in which absorbance increases; and third, a plateau phase in which absorbance has reached a maximum and little or no further change occurs. Polymerization enhancers such as paclitaxel and docetaxel shorten or eliminate the lag phase, increase the rate of the polymerization phase, and often increase the height of the plateau. […] The compounds of this invention have a taxane-like effect on the polymerization reaction. This has been expressed quantitatively in Table 5 by dividing the mean A340 of each sample at 20 min by the mean A340 of the control at 20 min to give a fold enhancement over control. […] Examples of this invention have factors ranging up to 8.1, with the majority in the 5 to 6-fold range.

pIC50: −log10 of the molar value.

As a reminder, the pIC50 is −log10 of the IC50, conventionally taken in molar units.

`C[C@H](Nc1c(-c2c(F)cc(OCCCN3CCN(C)CC3)cc2F)c(Cl)nc2ncnn12)C(F)(F)F` [Example 6, 5-Chloro-6-{2,6-difluoro-4-[3-(4-methylpiperazin-1-yl)propoxy]phenyl}-N-[(1S)-2,2,2-trifluoro-1-methylethyl][1,2,4]triazolo[1,5-a]pyrimidin-7-amine] had a pIC50 in experiment [1] of 6.81. Moreover, the “A340 Compound/A340 Control” value in experiment [2] was determined as 6.7.
For `C[C@H](Nc1c(-c2c(F)cc(NCCCN(C)C)cc2F)c(Cl)nc2ncnn12)C(F)(F)F` [Example 23, N^1-[4-(5-Chloro-7-{[(1S)-2,2,2-trifluoro-1-methylethyl]amino}[1,2,4]triazolo[1,5-a]pyrimidin-6-yl)-3,5-difluorophenyl]-N^3,N^3-dimethylpropane-1,3-diamine], in experiment [1], the pIC50 was 6.14. Also, the “A340 Compound/A340 Control” value in experiment [2] is given as 4.2.
On the same counts, the results for `C[C@H](Nc1c(-c2ccc(OCCCN(C)C)cc2F)c(Cl)nc2ncnn12)C(F)(F)F` [Example 13, 5-Chloro-6-{4-[3-(dimethylamino)propoxy]-2-fluorophenyl}-N-[(1S)-2,2,2-trifluoro-1-methylethyl][1,2,4]triazolo[1,5-a]pyrimidin-7-amine] are 6.58 and 5.4.
For `C[C@H](Nc1c(-c2c(F)cc(OCCCCN(C)C)cc2F)c(Cl)nc2ncnn12)C(F)(F)F` [Example 15, 5-Chloro-6-{4-[4-(dimethylamino)butoxy]-2,6-difluorophenyl}-N-[(1S)-2,2,2-trifluoro-1-methylethyl][1,2,4]triazolo[1,5-a]pyrimidin-7-amine], the pIC50 in experiment [1] was 6.56. Besides, in experiment [2], the “A340 Compound/A340 Control” value is listed as 5.5.
On the same counts, the results for `C[C@H](Nc1c(-c2c(F)cc(N(C)CCCN(C)C)cc2F)c(Cl)nc2ncnn12)C(F)(F)F` [Example 22, N^1-[4-(5-Chloro-7-{[(1S)-2,2,2-trifluoro-1-methylethyl]amino}[1,2,4]triazolo[1,5-a]pyrimidin-6-yl)-3,5-difluorophenyl]-N′,N^3,N^3-trimethylpropane-1,3-diamine] are 5.78 and 1.2.
Regarding `C[C@H](Nc1c(-c2c(F)cc(OCCN3CCOCC3)cc2F)c(Cl)nc2ncnn12)C(F)(F)F` [Example 17, 5-Chloro-6-[2,6-difluoro-4-(2-morpholin-4-ylethoxy)phenyl]-N-[(1S)-2,2,2-trifluoro-1-methylethyl][1,2,4]triazolo[1,5-a]pyrimidin-7-amine], the negative logarithm of the IC50 (pIC50) in experiment [1] is 6.61. For the same compound, the “A340 Compound/A340 Control” value in experiment [2] is given as 4.8.
Regarding `C[C@H](Nc1c(-c2c(F)cc(CCCCN(C)C)cc2F)c(Cl)nc2ncnn12)C(F)(F)F` [Example 26, 5-Chloro-6-{4-[4-(dimethylamino)butyl]-2,6-difluorophenyl}-N-[(1S)-2,2,2-trifluoro-1-methylethyl][1,2,4]triazolo[1,5-a]pyrimidin-7-amine], in experiment [1], the pIC50 is 6.18. Besides, the “A340 Compound/A340 Control” value in experiment [2] was 4.6.
In experiment [1], `C[C@H](Nc1c(-c2c(F)cc(SCCCN(C)C)cc2F)c(Cl)nc2ncnn12)C(F)(F)F` [Example 18, 5-Chloro-6-(4-{[3-(dimethylamino)propyl]thio}-2,6-difluorophenyl)-N-[(1S)-2,2,2-trifluoro-1-methylethyl][1,2,4]triazolo[1,5-a]pyrimidin-7-amine] gave a pIC50 of 6.72. Moreover, the “A340 Compound/A340 Control” value in experiment [2] worked out at 5.8.
Compound `CCN(C)CCCOc1cc(F)c(-c2c(Cl)nc3ncnn3c2N[C@@H](C)C(F)(F)F)c(F)c1` [Example 8, 5-Chloro-6-(4-{3-[ethyl(methyl)amino]propoxy}-2,6-difluorophenyl)-N-[(1S)-2,2,2-trifluoro-1-methylethyl][1,2,4]triazolo[1,5-a]pyrimidin-7-amine] had a pIC50 in experiment [1] of 7.32. Further, the “A340 Compound/A340 Control” value in experiment [2] is recorded as 6.2.
On the same counts, the results for `C[C@H](Nc1c(-c2c(F)cc(OCCN(C)C)cc2F)c(Cl)nc2ncnn12)C(F)(F)F` [Example 16, 5-Chloro-6-{4-[2-(dimethylamino)ethoxy]-2,6-difluorophenyl}-N-[(1S)-2,2,2-trifluoro-1-methylethyl][1,2,4]triazolo[1,5-a]pyrimidin-7-amine] are 6.24 and 2.4.
On the same counts, the results for `C[C@H](Nc1c(-c2c(F)cc(OCCCN3CCC3)cc2F)c(Cl)nc2ncnn12)C(F)(F)F` [Example 12, 6-[4-(3-Azetidin-1-ylpropoxy)-2,6-difluorophenyl]-5-chloro-N-[(1S)-2,2,2-trifluoro-1-methylethyl][1,2,4]triazolo[1,5-a]pyrimidin-7-amine] are 6.49 and 2.9.
Taken in the same sequence, the figures for `CCNCCCOc1cc(F)c(-c2c(Cl)nc3ncnn3c2N[C@@H](C)C(F)(F)F)c(F)c1` [Example 7, 5-Chloro-6-{4-[3-(ethylamino)propoxy]-2,6-difluorophenyl}-N-[(1S)-2,2,2-trifluoro-1-methylethyl][1,2,4]triazolo[1,5-a]pyrimidin-7-amine] were 7.54 and 6.4.
`CNCCCOc1cc(F)c(-c2c(Cl)nc3ncnn3c2NCC(F)(F)F)c(F)c1` [Example 3, 5-Chloro-6-{2,6-difluoro-4-[3-(methylamino)propoxy]phenyl}-N-(2,2,2-trifluoroethyl)[1,2,4]triazolo[1,5-a]pyrimidin-7-amine] showed a pIC50 in experiment [1] of 7.60. The “A340 Compound/A340 Control” value in experiment [2] amounted to 6.7.

The record behind these values is US7507739B2, “6-[(substituted)phenyl]triazolopyrimidines as anticancer agents” (Wyeth, priority 2003, dated 2009).
